Test results: ChEMBL document CHEMBL1201862, “PubChem BioAssay data set” (2004)
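Cells were grown in 96-well plates and exposed to each compound for 48 hours at five concentrations; endpoints were interpolated linearly between bracketing concentrations, or set to the highest concentration if not reached. GI50 = concentration required for 50% inhibition of growth.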 The source made the active and inactive calls. Cut-off read from the data, not from the text of the source: active = GI50 up to about 1.1 µM and inactive = higher.

How the values were obtained:
Assay in all cases: inhibition of tumour cell growth, NCI panel, 48 h
[1] = test system: MDA-N
[2] = test system: SK-MEL-28
[3] = test system: PC-3
[4] = test system: T47D
[5] = test system: NCI-H460
[6] = test system: EKVX
[7] = test system: HT-29
[8] = test system: SNB-75
[9] = test system: MDA-MB-435
[10] = test system: 786-0
[11] = test system: SF-268
[12] = test system: NCI-H23
[13] = test system: SW-620
[14] = test system: HCC 2998
[15] = test system: U-251
[16] = test system: SF-295
[17] = test system: DU-145
[18] = test system: KM12
[19] = test system: LOX IMVI
[20] = test system: IGROV-1

Measured: GI50

CC(=O)OCC1OC(N2C(=O)/C(=C\c3ccc(Cl)cc3)C(N)=Nc3ccccc32)C(OC(C)=O)C(OC(C)=O)C1OC(C)=O (stereo not given)
inactive: [1] 17.6 µM | [2] 26.1 µM | [3] 20.6 µM | [4] 12.4 µM | [5] 28.4 µM | [6] 29.2 µM | [7] 25.7 µM | [8] 19.1 µM | [9] 16 µM | [10] 17.7 µM | [11] 18.2 µM | [12] 25.9 µM | [13] 23.2 µM | [14] 16.1 µM | [15] 14.6 µM | [16] 38.8 µM | [17] 28.8 µM | [18] 14.9 µM | [19] 17.1 µM | [20] 19.6 µM

O=C(O)c1[nH]c2c([N+](=O)[O-])cc([N+](=O)[O-])cc2c1C(=O)O
inactive: [1] 29.9 µM | [2] > 100 µM | [3] > 100 µM | [4] > 100 µM | [5] > 100 µM | [6] > 100 µM | [7] > 100 µM | [8] > 100 µM | [9] 52.1 µM | [10] > 100 µM | [11] > 100 µM | [12] > 100 µM | [13] > 100 µM | [14] > 100 µM | [15] > 100 µM | [16] > 100 µM | [17] > 100 µM | [18] > 100 µM | [19] > 100 µM | [20] > 100 µM

C=C(C)C(=O)OC1CC2(C)OC(=CC2=O)C(C)CC2OC(=O)C(=C)C12 (stereo not given)
inactive: [1] 3.01 µM | [2] 4.2 µM | [3] 14 µM | [4] 4.57 µM | [5] 11.9 µM | [6] 7.76 µM | [7] 3.92 µM | [8] 20.2 µM | [9] 4.13 µM | [10] 3.24 µM | [11] 26.7 µM | [12] 8.89 µM | [13] 2.79 µM | [14] 10.3 µM | [15] 16.5 µM | [16] 19 µM | [17] 4.74 µM | [18] 19.8 µM | [19] 2.94 µM | [20] 8.85 µM

COC(=O)C1(Cc2ccccc2)Cc2cc3c(cc2C1=O)CCC3 (stereo not given)
inactive: [1] 15 µM | [2] 46.2 µM | [3] 26.1 µM | [4] 13.4 µM | [5] 4.44 µM | [6] 25.3 µM | [7] 12 µM | [8] 27.7 µM | [9] 15.1 µM | [10] 39.4 µM | [11] 22.2 µM | [12] 56.2 µM | [13] 29.6 µM | [14] 2.81 µM | [15] 33.6 µM | [16] 38.2 µM | [17] 48.1 µM | [18] 19.8 µM | [19] 27 µM | [20] 36 µM

C[n+]1c(/C=C/c2ccc(/C=N/NC(=O)c3ccc(C(=O)N/N=C/c4ccc(/C=C/c5cn6ccccc6[n+]5C)cc4)cc3)cc2)cn2ccccc21
inactive: [1] > 100 µM | [2] > 100 µM | [3] > 100 µM | [4] > 100 µM | [5] > 100 µM | [6] > 100 µM | [7] > 100 µM | [8] > 100 µM | [9] > 100 µM | [10] 16.6 µM | [11] > 100 µM | [12] > 100 µM | [13] > 100 µM | [14] > 100 µM | [15] > 100 µM | [16] > 100 µM | [17] > 100 µM | [18] > 100 µM | [19] > 100 µM | [20] > 100 µM

COc1ccc(Cc2cc(OC)c(OC)c(OC)c2)cc1
active: [1] 0.0245 µM | [2] 0.479 µM | [3] 0.234 µM | [5] 0.286 µM | [7] 0.124 µM | [8] 0.192 µM | [9] 0.0236 µM | [10] 0.429 µM | [12] 0.395 µM | [13] 0.109 µM | [14] 0.226 µM | [15] 0.261 µM | [16] 0.188 µM | [17] 0.328 µM | [18] 0.144 µM | [19] 0.393 µM | [20] 0.863 µM
inactive: [4] 30.8 µM | [6] 1.14 µM | [11] 1.27 µM

CCOc1cccc(-c2cc(O)c3cc4c(cc3n2)OCO4)c1
active: [1] 0.0214 µM | [3] 0.112 µM | [5] 0.318 µM | [7] 0.221 µM | [8] 0.0948 µM | [9] 0.0164 µM | [10] 0.197 µM | [11] 0.466 µM | [12] 0.396 µM | [13] 0.0573 µM | [14] 0.239 µM | [15] 0.0619 µM | [16] 0.0735 µM | [17] 0.335 µM | [18] 0.267 µM | [19] 0.233 µM | [20] 0.548 µM
inactive: [2] 1.66 µM | [4] 54.7 µM | [6] 10.5 µM

CC(C)(C)C1CCC(=O)/C(=C/CC2CC(=O)N(c3ccccc3)C(=O)C2)C1 (stereo not given)
inactive: [1] 22.6 µM | [2] 21.2 µM | [3] 27.5 µM | [4] 21.8 µM | [5] 16.6 µM | [6] 26 µM | [7] 19.8 µM | [8] 21.9 µM | [9] 23.8 µM | [10] 19.8 µM | [11] 20.1 µM | [12] 17.8 µM | [13] 23.4 µM | [14] 23.8 µM | [15] 14.9 µM | [16] 47.8 µM | [17] 19.2 µM | [18] 18.5 µM | [19] 13.7 µM | [20] 19.7 µM

CN(C)CC1CC/C(=C\c2ccc(O)cc2)C1=O (stereo not given)
inactive: [1] 2.71 µM | [2] 2.48 µM | [3] 9.08 µM | [4] 2.14 µM | [5] 17.5 µM | [6] 4.83 µM | [7] 3.04 µM | [8] 11 µM | [9] 5.07 µM | [10] 2.16 µM | [11] 9.62 µM | [12] 6.67 µM | [13] 2.33 µM | [14] 10.7 µM | [15] 6.71 µM | [16] 19.2 µM | [17] 16.1 µM | [18] 4.18 µM | [19] 2.3 µM | [20] 11.3 µM

CN(/N=C(\C(=O)O)c1ccccc1)C1=NCCCCN1
inactive: [1] > 100 µM | [2] > 100 µM | [3] > 100 µM | [4] > 100 µM | [5] > 100 µM | [6] > 100 µM | [7] > 100 µM | [8] > 100 µM | [9] > 100 µM | [10] > 100 µM | [11] > 100 µM | [12] > 100 µM | [13] > 100 µM | [14] > 100 µM | [15] > 100 µM | [16] > 100 µM | [17] > 100 µM | [18] > 100 µM | [19] > 100 µM | [20] 94.6 µM

CC[C@@H](/C=C\CCC1(C[C@@H](N)CCC=C(C)C)OCCO1)O[Si](C(C)C)(C(C)C)C(C)C
inactive: [1] 16.4 µM | [2] 18 µM | [3] 16.1 µM | [4] 23.2 µM | [5] 18.4 µM | [6] 15.6 µM | [7] 17.3 µM | [8] 18.9 µM | [9] 18.4 µM | [10] 17.4 µM | [11] 19.1 µM | [12] 21.1 µM | [13] 21.7 µM | [14] 13 µM | [15] 19.9 µM | [16] 19 µM | [17] 19.8 µM | [18] 18.1 µM | [19] 4.97 µM | [20] 15.8 µM

CS(=O)(=O)c1ccc(/C=N/NC(N)=S)cc1
inactive: [1] > 100 µM | [2] > 100 µM | [3] > 100 µM | [4] > 100 µM | [5] > 100 µM | [6] > 100 µM | [7] > 100 µM | [8] > 100 µM | [9] > 100 µM | [10] > 100 µM | [11] > 100 µM | [12] > 100 µM | [13] > 100 µM | [14] > 100 µM | [15] > 100 µM | [16] > 100 µM | [17] > 100 µM | [18] > 100 µM | [19] > 100 µM | [20] > 100 µM

CCOC(=O)c1ccc(Nc2nc3ccccc3n3cccc23)cc1
inactive: [1] 3.15 µM | [2] 88.1 µM | [3] 36.6 µM | [4] 9.57 µM | [5] 84.7 µM | [6] 31.3 µM | [7] 36.7 µM | [8] 22.2 µM | [9] 3.27 µM | [10] 26.8 µM | [11] 35.7 µM | [12] 63.8 µM | [13] 9.38 µM | [14] 35 µM | [15] 28.4 µM | [16] 27.1 µM | [17] 86.1 µM | [18] 28.1 µM | [19] 50.2 µM | [20] 46.6 µM

Cc1c(C)c(S(=O)(=O)N(CCCCN)OCCCN)c(C)c2c1OC(C)(C)CC2
inactive: [1] 22.8 µM | [2] 19.6 µM | [3] 5.47 µM | [4] 23.7 µM | [5] 12.9 µM | [6] 16 µM | [7] 17.6 µM | [8] 13.8 µM | [9] 16.5 µM | [10] 13.7 µM | [11] 15.4 µM | [12] 16.4 µM | [13] 31.8 µM | [14] 6.08 µM | [15] 21.9 µM | [16] 17.7 µM | [17] 23.7 µM | [18] 17.1 µM | [19] 6.22 µM | [20] 4.51 µM
